Measurements from the supplement of paper PMC13380429.

What was measured:
Settings in all cases: 72 h
[1] = system: U2OS; assay: cell viability relative to DMSO; higher = less toxic
[2] = system: Caco-2; assay: as above
[3] = system: HepG2; assay: as above
[4] = system: Calu-3; assay: as above
[5] = system: Vero E6; assay: as above
[6] = system: U2OS; assay: drug sensitivity score (DSS) for viability; higher = more toxic; extreme values may be limits of the assay
[7] = system: Caco-2; assay: as above
[8] = system: HepG2; assay: as above
[9] = system: Calu-3; assay: as above
[10] = system: Vero E6; assay: as above
[11] = system: U2OS; assay: relative viability EC50 (midpoint between 100% and the lowest measured viability); higher = less toxic
[12] = system: Caco-2; assay: as above
[13] = system: HepG2; assay: as above
[14] = system: Calu-3; assay: as above
[15] = system: Vero E6; assay: as above

Row | SMILES | cell viability ([1]; 1 nM) | cell viability ([1]; 10 nM) | cell viability ([1]; 100 nM) | cell viability ([1]; 1000 nM) | cell viability ([1]; 10000 nM) | cell viability ([2]; 1 nM) | cell viability ([2]; 10 nM) | cell viability ([2]; 100 nM) | cell viability ([2]; 1000 nM) | cell viability ([2]; 10000 nM) | cell viability ([3]; 1 nM) | cell viability ([3]; 10 nM) | cell viability ([3]; 100 nM) | cell viability ([3]; 1000 nM) | cell viability ([3]; 10000 nM) | cell viability ([4]; 1 nM) | cell viability ([4]; 10 nM) | cell viability ([4]; 100 nM) | cell viability ([4]; 1000 nM) | cell viability ([4]; 10000 nM) | cell viability ([5]; 1 nM) | cell viability ([5]; 10 nM) | cell viability ([5]; 100 nM) | cell viability ([5]; 1000 nM) | cell viability ([5]; 10000 nM) | drug sensitivity score [6] | drug sensitivity score [7] | drug sensitivity score [8] | drug sensitivity score [9] | drug sensitivity score [10] | relative viability EC50 [11] | relative viability EC50 [12] | relative viability EC50 [13] | relative viability EC50 [14] | relative viability EC50 [15]
1 | c1ccc(C2CC2)c(OCC2=NCCN2)c1 [cirazoline] | 94.2% | 95.7% | 99.5% | 97.6% | 98.1% | 97.1% | 95% | 102% | 90.4% | 113% | 95.5% | 97.6% | 94.8% | 107% | 110% | 108% | 97.2% | 99.3% | 107% | 98.6% | 93.7% | 97.2% | 95.8% | 106% | 107% | 0 | 0 | 0 | 0 | 0 | > 10 µM | > 10 µM | > 10 µM | > 10 µM | > 10 µM
2 | Cc1cccc(C)c1OCC(=O)N[C@@H](Cc1ccccc1)[C@@H](O)C[C@H](Cc1ccccc1)NC(=O)[C@H](C(C)C)N1CCCNC1=O [lopinavir] | 101% | 107% | 100% | 101% | 93.3% | 90.9% | 102% | 102% | 93.9% | 84.8% | 107% | 106% | 108% | 104% | 86.5% | 103% | 90.1% | 97.3% | 102% | 104% | 103% | 99.1% | 104% | 101% | 110% | 0 | 0.7 | 0.1 | 0 | 0 | > 10 µM | > 10 µM | > 10 µM | > 10 µM | > 10 µM
3 | CC(C)(N)C(=O)N[C@H](COCc1ccccc1)C(=O)N1CCC2(CC1)CN(S(C)(=O)=O)c1ccccc12 [ibutamoren] | 100% | 100% | 96.9% | 102% | 100% | 93.6% | 98.4% | 99% | 100% | 95.8% | 102% | 89.5% | 95.6% | 98% | 95.6% | 111% | 108% | 98% | 105% | 91% | 104% | 103% | 98.1% | 95.6% | 108% | 0 | 0 | 0 | 0 | 0 | > 10 µM | > 10 µM | > 10 µM | > 10 µM | > 10 µM
4 | CCC(=O)O[C@H]1[C@H](O[C@@H]2[C@@H](C)[C@H](O[C@H]3C[C@@](C)(OC)[C@@H](O)[C@H](C)O3)[C@@H](C)C(=O)O[C@H](CC)[C@@](C)(O)[C@H](O)[C@@H](C)C(=O)[C@H](C)C[C@@]2(C)O)O[C@H](C)C[C@@H]1N(C)C [erythromycin-estolate] | 98.7% | 98.4% | 101% | 104% | 104% | 96.2% | 102% | 97.5% | 99.4% | 97% | 99.7% | 104% | 104% | 93.2% | 100% | 91.3% | 96% | 91.4% | 88.6% | 99% | 96.9% | 95.9% | 101% | 96.4% | 102% | 0 | 0 | 0 | 0 | 0 | > 10 µM | > 10 µM | > 10 µM | > 10 µM | > 10 µM
5 | CCC(CO)(C(=O)OC1CC2CCC(C1)[N+]2(C)C)c1ccccc1 (stereo not given) [troventol] | 97.3% | 94.3% | 99.4% | 97.8% | 105% | 92.5% | 92.6% | 98.5% | 94.2% | 94.2% | 93.6% | 103% | 93.1% | 107% | 113% | 99.8% | 94.6% | 91.8% | 102% | 93.9% | 93.7% | 96% | 86.6% | 97.8% | 110% | 0 | 0 | 0 | 0 | 0 | > 10 µM | > 10 µM | > 10 µM | > 10 µM | > 10 µM
6 | Cc1cccc(C)c1OCC(=O)N[C@@H](Cc1ccccc1)[C@@H](O)C[C@H](Cc1ccccc1)NC(=O)[C@H](C(C)C)N1CCCNC1=O [Lopinavir] | 99.5% | 95.2% | 103% | 94.1% | 96.5% | 95% | 101% | 100% | 101% | 83.7% | 101% | 87.1% | 103% | 105% | 95.4% | 95.4% | 84.9% | 92.7% | 93.9% | 89.2% | 93.3% | 100% | 100% | 100% | 104% | 0 | 0.3 | 0 | 0 | 0 | > 10 µM | > 10 µM | > 10 µM | > 10 µM | > 10 µM
